{"source": "patent US9585877B2", "about": "“Methods of maintaining, treating or improving cognitive function” (Forum Pharmaceuticals, Inc., priority 2012, dated 2017)", "test_system": "subjects with mild-to-moderate Alzheimer's disease", "assay": "Clinical study, ADAS-Cog-13", "format": "in vivo, human", "protocol": "A double-blind study of 3 doses of the Test Composition or placebo in subjects with mild-to-moderate Alzheimer's disease, with or without receiving a concomitant AChEI for 24 weeks (168 days) after a 7 day placebo run-in period.\nTotal number of subjects in the safety population was 409 subjects that were dosed once-daily with a dosing-capsule for a period of 168 days. The subjects dosed, and the particular dosing, included: 104 subjects dosed with Placebo capsule; and 305 subjects dosed with Test Compound (104 subjects with 0.3 mg capsules; 101 subjects with 1 mg capsules; and 100 subjects with 2 mg capsules).\nThe population included generally healthy male or female subjects, aged 50 to ≦85 years, with mild-to-moderate Alzheimer's disease, consistent with criteria defined by a Work Group of the National Institute of Neurological and Communicative Disorders and Stroke—Alzheimer's Disease and Related Disorders Association, of mild to moderate severity, with a Mini-Mental State Examination score (MMSE) 14 and ≦24, and a Clinical Dementia Rating Scale Sum of the Boxes (CDR-SB) score of 2. […] Subjects were required to be either receiving a stable dose of an AChEI (donepezil or rivastigmine) for at least 3 months before screening or not presently being treated with an AChEI or mementine for at least 30 days.\nSubjects with mild to moderate Alzheimer's disease receiving stable treatment with an AChEI (donepezil or rivastigmine: ‘add-on’ subjects) or not receiving an AChEI (de novo subjects′) received 0.3, 1, or 2 mg doses of Test Composition or placebo for up to 24 weeks (168 days) of double-blind treatment, after a 7-day single-blind, placebo run-in period to assess study drug compliance. A follow-up telephone contact was conducted approximately 15 days after the last dose of study drug for questions regarding safety.\nCognitive Part of the Alzheimer's Disease Assessment Scale (ADAS-Cog-13)\nThe ADAS-Cog-13 is identical to the ADAS-Cog-11 assessment group (see above), with the addition of test items: Delayed Word Recall, and Digit (Number) Cancellation.\nThe ADAS-cog-13 total score ranges from 0 to 85 (higher scores indicate more severe impairment). A decrease from baseline indicates improvement.", "data": [{"compound": "Cl.O.O=C(N[C@H]1CN2CCC1CC2)c1cc2cccc(Cl)c2s1", "note": "[Test Compound, (R)-7-chloro-N-(quinuclidin-3-yl)benzo[b]thiophene-2-carboxamide, hydrochloride, monohydrate]", "values": [{"measurement": "ADAS-Cog-13 (Baseline was assigned the value of zero @ Week 0)", "setting": "0.3 mg daily dose, Week 4", "result": "−0.615"}, {"measurement": "ADAS-Cog-13 (Baseline was assigned the value of zero @ Week 0)", "setting": "0.3 mg daily dose, Week 12", "result": "−0.5876"}, {"measurement": "ADAS-Cog-13 (Baseline was assigned the value of zero @ Week 0)", "setting": "0.3 mg daily dose, Week 18", "result": "−0.3132"}, {"measurement": "ADAS-Cog-13 (Baseline was assigned the value of zero @ Week 0)", "setting": "0.3 mg daily dose, Week 23", "result": 0.0915}, {"measurement": "ADAS-Cog-13 (Baseline was assigned the value of zero @ Week 0)", "setting": "1 mg daily dose, Week 4", "result": "−0.8012"}, {"measurement": "ADAS-Cog-13 (Baseline was assigned the value of zero @ Week 0)", "setting": "1 mg daily dose, Week 12", "result": "−1.2029"}, {"measurement": "ADAS-Cog-13 (Baseline was assigned the value of zero @ Week 0)", "setting": "1 mg daily dose, Week 18", "result": "−0.3222"}, {"measurement": "ADAS-Cog-13 (Baseline was assigned the value of zero @ Week 0)", "setting": "1 mg daily dose, Week 23", "result": "−0.0565"}, {"measurement": "ADAS-Cog-13 (Baseline was assigned the value of zero @ Week 0)", "setting": "2 mg daily dose, Week 4", "result": "−0.0185"}, {"measurement": "ADAS-Cog-13 (Baseline was assigned the value of zero @ Week 0)", "setting": "2 mg daily dose, Week 12", "result": "−1.4328"}, {"measurement": "ADAS-Cog-13 (Baseline was assigned the value of zero @ Week 0)", "setting": "2 mg daily dose, Week 18", "result": "−1.6593"}, {"measurement": "ADAS-Cog-13 (Baseline was assigned the value of zero @ Week 0)", "setting": "2 mg daily dose, Week 23", "result": "−1.6899"}, {"measurement": "ADAS-Cog 13 Effect Size", "setting": "2 mg dose versus Placebo", "result": 0.39}, {"measurement": "ADAS-Cog-13 (Baseline was assigned the value of zero @ Week 0)", "setting": "Add-On patients (stable donepezil or rivastigmine), 0.3 mg daily dose, Week 4", "result": "−0.9985"}, {"measurement": "ADAS-Cog-13 (Baseline was assigned the value of zero @ Week 0)", "setting": "Add-On patients (stable donepezil or rivastigmine), 0.3 mg daily dose, Week 12", "result": "−0.2474"}, {"measurement": "ADAS-Cog-13 (Baseline was assigned the value of zero @ Week 0)", "setting": "Add-On patients (stable donepezil or rivastigmine), 0.3 mg daily dose, Week 18", "result": "−0.4557"}, {"measurement": "ADAS-Cog-13 (Baseline was assigned the value of zero @ Week 0)", "setting": "Add-On patients (stable donepezil or rivastigmine), 0.3 mg daily dose, Week 23", "result": 0.2752}, {"measurement": "ADAS-Cog-13 (Baseline was assigned the value of zero @ Week 0)", "setting": "Add-On patients (stable donepezil or rivastigmine), 1 mg daily dose, Week 4", "result": "−1.0728"}, {"measurement": "ADAS-Cog-13 (Baseline was assigned the value of zero @ Week 0)", "setting": "Add-On patients (stable donepezil or rivastigmine), 1 mg daily dose, Week 12", "result": "−0.0705"}, {"measurement": "ADAS-Cog-13 (Baseline was assigned the value of zero @ Week 0)", "setting": "Add-On patients (stable donepezil or rivastigmine), 1 mg daily dose, Week 18", "result": 0.6239}, {"measurement": "ADAS-Cog-13 (Baseline was assigned the value of zero @ Week 0)", "setting": "Add-On patients (stable donepezil or rivastigmine), 1 mg daily dose, Week 23", "result": 1.4205}, {"measurement": "ADAS-Cog-13 (Baseline was assigned the value of zero @ Week 0)", "setting": "Add-On patients (stable donepezil or rivastigmine), 2 mg daily dose, Week 4", "result": "−0.455"}, {"measurement": "ADAS-Cog-13 (Baseline was assigned the value of zero @ Week 0)", "setting": "Add-On patients (stable donepezil or rivastigmine), 2 mg daily dose, Week 12", "result": "−0.9708"}, {"measurement": "ADAS-Cog-13 (Baseline was assigned the value of zero @ Week 0)", "setting": "Add-On patients (stable donepezil or rivastigmine), 2 mg daily dose, Week 18", "result": "−1.8659"}, {"measurement": "ADAS-Cog-13 (Baseline was assigned the value of zero @ Week 0)", "setting": "Add-On patients (stable donepezil or rivastigmine), 2 mg daily dose, Week 23", "result": "−1.1679"}, {"measurement": "ADAS-Cog-13 (Baseline was assigned the value of zero @ Week 0)", "setting": "de novo patients, 0.3 mg daily dose, Week 4", "result": "−0.545"}, {"measurement": "ADAS-Cog-13 (Baseline was assigned the value of zero @ Week 0)", "setting": "de novo patients, 0.3 mg daily dose, Week 12", "result": "−1.0759"}, {"measurement": "ADAS-Cog-13 (Baseline was assigned the value of zero @ Week 0)", "setting": "de novo patients, 0.3 mg daily dose, Week 18", "result": "−0.4416"}, {"measurement": "ADAS-Cog-13 (Baseline was assigned the value of zero @ Week 0)", "setting": "de novo patients, 0.3 mg daily dose, Week 23", "result": "−0.3226"}, {"measurement": "ADAS-Cog-13 (Baseline was assigned the value of zero @ Week 0)", "setting": "de novo patients, 1 mg daily dose, Week 4", "result": "−0.5942"}, {"measurement": "ADAS-Cog-13 (Baseline was assigned the value of zero @ Week 0)", "setting": "de novo patients, 1 mg daily dose, Week 12", "result": "−2.311"}, {"measurement": "ADAS-Cog-13 (Baseline was assigned the value of zero @ Week 0)", "setting": "de novo patients, 1 mg daily dose, Week 18", "result": "−1.2239"}, {"measurement": "ADAS-Cog-13 (Baseline was assigned the value of zero @ Week 0)", "setting": "de novo patients, 1 mg daily dose, Week 23", "result": "−1.4169"}, {"measurement": "ADAS-Cog-13 (Baseline was assigned the value of zero @ Week 0)", "setting": "de novo patients, 2 mg daily dose, Week 4", "result": 0.3542}, {"measurement": "ADAS-Cog-13 (Baseline was assigned the value of zero @ Week 0)", "setting": "de novo patients, 2 mg daily dose, Week 12", "result": "−1.9196"}, {"measurement": "ADAS-Cog-13 (Baseline was assigned the value of zero @ Week 0)", "setting": "de novo patients, 2 mg daily dose, Week 18", "result": "−1.5539"}, {"measurement": "ADAS-Cog-13 (Baseline was assigned the value of zero @ Week 0)", "setting": "de novo patients, 2 mg daily dose, Week 23", "result": "−2.2283"}]}]}
